One test relates to Fabry mice. The test can be described thus: Substrate reduction therapy in Fabry mouse model: Gb3 and lyso-Gb3 levels. In kind it is in vivo. Particulars: male and female Fabry mice treated 4 months from ~8 months old; GZ 452 60 and 120 mg/kg/day, GZ 161 20 mg/kg/day. The method, then:
In the following experiments, mice dosed with GCS inhibitors at either ˜60 mg/kg/day of (S)-Quinuclidin-3-yl(2-(2-(4-fluorophenyl)thiazol-4-yl)propan-2-yl)carbamate (S)-2-hydroxysuccinate salt (hereinafter “GZ 452”) or ˜300 mg/kg/day of (1R,2R)-Octanoic acid[2-(2′,3′-dihydro-benzo[1,4] dioxin-6′-yl)-2-hydroxy-1-pyrrolidin-1-ylmethyl-ethyl]-amide-L-tartaric acid salt (hereinafter “GZ 638”) as a component of the pelleted food diet provided ad libitum. Lipid analysis was by ESI/MS as described in Marshall et al., PLoS ONE 5:e15033 (2010). As discussed in further detail below, treatment started when the mice were 3, 8 or 12 months of age to test the efficacy at different disease severities. Blood and urine was collected monthly and periodic tissue harvests provided materials to evaluate efficacy of the therapy (Gb3 and lyso-Gb3 levels). […] As further discussed below, the efficacy of SMT was affected by the age of the mice at the start of treatment. Generally, the older the mouse, the higher the levels of Gb3 stored and thus a longer period of treatment was required in order to affect similar therapeutic benefit (see FIG. 4). The experiments and results are described further below.
In this experiment, Fabry mice were treated with GCS inhibitors in their diet for 4 months starting at 8 months old. […] Age-matched wild-type levels (WT) are also shown. […]

Another test concerns K14 mice. In words: Brain histopathology (CD68, F4/80, GFAP staining) in K14 mice. In kind it is in vivo, mouse. As to conditions: daily IP from P4, staining at P10, vs vehicle. The protocol: After genotype confirmation, animals were humanely sacrificed at 10 days of age, At this age K14 mice are asymptomatic. Mice received an intraperitoneal injection of 150 mg/kg sodium pentobarbital ((Euthasol, Virbac Inc, Fort Worth, Tex.) and were perfused by an intracardial infusion of chilled 0.9% sodium chloride. Brains were removed and post fixed in 4% paraformaldehyde for 72 hours. Tissue was transferred to PBS and paraffin embedded. Sagital sections 5 μm thick were cut and stained as described below. Gliosis and the presence of cells of the macrophage lineage were evaluated by means of glial fibrillary acidic protein staining and expression of CD68 and F4/80 pan-macrophage markers using the Leica Bond Max Immunostainer system (Leica Microsystems, Wetzlar, Germany).
GFAP staining: Paraffin sections were placed on mounting slides and processed using the Bond Polymer Refine IHC system (Leica Microsystems, Wetlzar, Germany) blocked for 10 minutes in serum-free protein block (Dako systems, Glostrup, Denmark), incubated for 30 minutes in a 1:1500 dilution of primary anti-GFAP antibody in Dako antibody diluent (Dako, Glostrup, Denmark), and stained using the Bond Polymer Refine detection kit (Leica Microsystems, Wetzlar, Germany). […]
For each staining technique exposure-matched digital images were obtained from similar brain regions of each experimental group using the Aperio ScanScope XT system (Aperio Technologies, Vista, Calif.). Stained slides were digitalized in high resolution and six areas of interest were highlighted in each slide and analyzed independently by histomorphometry. Positively stained area and nuclei were determined and quantitative data were analyzed by a one-way analysis of variance followed by Tukey's multiple comparison test using the Graph Pad Prism V 4.0 (GraphPad Software, San Diego, Calif.). […]

The values that follow come from patent publication US9126993B2, “Glucosylceramide synthase inhibitors” (GENZYME CORPORATION, priority 2011, dated 2015).

Entries after “also recorded” stand apart in the source; their conditions may differ.

`CC(C)(NC(=O)OC1CN2CCC1CC2)c1cccc(-c2ccc(F)cc2)c1` (stereo not shown) [GZ 161, Quinuclidin-3-yl(2-(4′-fluoro-[1,1′-biphenyl]-3-yl)propan-2-yl)carbamate]: the “Gb3 in kidney tissue relative to untreated controls” value in the test on Fabry mice is recorded as “significantly reduced the amount of Gb3”. Also, in the test with K14 mice, the “CD68+ cells in brain (hippocampus, thalamus, brainstem, cerebellum)” value is “reduces the numbers of CD68+ cells in all of these locations; also recorded: significant reductions the CD68+ cells in all brain regions”; the “F4/80+ cells in brain” value was “reduced the numbers of F4/80+ cells in the thalamus and brainstem, but had marginal effects in other brain regions; also recorded: significant reductions the F4/80+ cells in the thalamus and brainstem”; the “GFAP staining (gliosis) in brain” value is “decreased GFAP staining in the hippocampus and cerebellum; also recorded: significant reductions the GFAP+ cells in the hippocampus and cerebellum”.
